# Measurements reported in patent US4562207A, “Prostaglandin analogue” (Ono Pharmaceutical Co., Ltd., priority 1983, dated 1985).
# Read-outs that look alike come from different tables or passages of the source.
# How the values were obtained:
# [1] = tested on: platelet aggregation induced by adenosine-diphosphoric acid (ADP); assay: inhibiting activity on platelet aggregation induced by ADP on human blood; format: cell-based; details: for IC50: read-out: IC50 (concentration which produces 50%-inhibition of platelet aggregation); for Relative activity against PGE1: relative to PGE1 (control) = 1.00, ADP-induced
# Source text: The platelet aggregation was induced by adenosine-diphosphoric acid (ADP) on human blood. The IC50 values given in the Table are the concentrations which produce 50%-inhibition of platelet aggregation.
# INHIBITING ACTIVITIES ON PLATELET AGGREGATION INDUCED BY ADP
# [2] = acute toxicity in mice by oral administration; details: mouse, in vivo
# Description: For example, in a test of acute toxicity in mice by oral administration, the value of LD50 of 6-keto-16S,18S-ethano-20-ethyl-PGE1 for the compound of the present invention is very large; that is the value is more than […] animal body weight.
# [3] = tested on: carbon tetrachloride-induced liver damage; assay: carbon tetrachloride-induced liver damage in rats; format: in vivo; details: oral, in comparison with controls
# Description: The experiments were carried out by the methods described in Example 1 of the specification of published W. German Patent Application No. 3310556.1 and Japanese Patent Kokai No. 58-164512, except that carbon tetrachloride was used as a 10% solution in olive oil.
# [4] = ADP-induced platelet aggregation, human blood
SMILES,"IC50 [1, 4] [ng/mL]","IC50 ([1]; Homo sapiens, Platelet) [ng/mL]","activity as compared with the comparison compound (times as strong) ([1]; compared with compound of Example 2(d) of U.S. Pat. No. 4,278,688, platelet aggregation)",Relative activity against PGE1 ([1]; human blood),LD50 [2] [mg/kg],inhibition of plasma GOT (glutamic oxalacetic transaminase) ([3]; 20 μg/kg) [%],inhibition of plasma GPT (glutamic pyruvic transaminase) ([3]; 20 μg/kg) [%],inhibition of plasma GOT (glutamic oxalacetic transaminase) ([3]; 50 μg/kg) [%],inhibition of plasma GPT (glutamic pyruvic transaminase) ([3]; 50 μg/kg) [%]
"CCCCC[C@H](O)/C=C/[C@H]1[C@H](O)CC(=O)[C@@H]1CCCCCCC(=O)O [PGE1, reference compound]",34.5,,,,,,,,
"CCCC[C@H]1CC[C@H]([C@H](O)/C=C/[C@H]2[C@H](O)CC(=O)[C@@H]2CC(=O)CCCCC(=O)O)C1 [6-keto-16S,18S-ethano-20-ethyl-PGE1, 6,9-dioxo-11α,15α-dihydroxy-16S,18S-ethano-20-ethylprost-13E-enoic acid]",,0.08,about 45 times,431,> 3,47,42,64,66
CCCCC1CCC([C@H](O)/C=C/[C@H]2[C@H](O)CC(=O)[C@@H]2CC(=O)CCCCC(=O)OC)C1 (some centres unmarked) [reference compound],3.6,,,9.58,,,,,
